# In patent US12655125B2 (SIRONAX LTD., priority 2020, dated 2026):
# Tested on: HT-29 cells
# Experiment: HT29 Cells 0FBS Assay In Vitro (TNF-α/SMAC mimetic/zVAD-FMK induced necroptosis, CellTiter-Glo cell viability)
# Assay type: cell-based
# Conditions: Homo sapiens; HT-29 cells, FBS free medium, TNF-α (10 ng/ml), SMAC mimetic (6 uM), zVAD-FMK (10 μM), 20 hours; geometric mean EC50; read-out: Cell activity (EC50) of Compounds 1-116
# Excerpt: Protocol for HT29 Cells 0FBS Assay In Vitro
# • Cell line: HT-29 (ATCC® HTB-38™) • Culture medium: McCOY's 5 A, Gibco, Cat No. 16600-082 • FBS, Gibco, Cat No. 10099-141C • Trypsin: Gibco, Cat No. 25200-056 • DMSO: Sigma, Cat No. 67-68-5, 1 L • Assay plate: Corning #3903 • Compound dilution plate: Corning #3357 • Inducers: TNFα, GenScript, Cat No. ZO1001-50, • SmacM, Cat. No., HY-15989, MedChemExpress (MCE) • Z_VAD FMK, TargetMol, T6013 • Cell Titer-Glo® Luminescent Cell Viability Assay Kit: Promega, Cat No. G7573 • EnVision: PerkinElmer, 2105-0010 2. Cell Seeding of HT-29 Cells • 1) HT-29 cells were checked every day to make sure they are healthy and growing as expected. They were split sub-culturing when were approximately 80% confluent. • 2) First pre-warm the culture medium of McCOY's 5 A medium (Gibco, Cat No. 16600-082) with 10% FBS (Gibco, Cat No. 10099-141C) in 37° C. water bath for at least 30 min. • 3) Growing cells to desired level of confluency 80% in a T75 flask, aspirate the medium, and wash with warm PBS two times. • 4) Add 2-3 ml fresh warm trypsin (Gibco, Cat No. 25200-056) solution. Transfer the flask to a 37° C. incubator. • 5) After 5 minutes, tap the side of the flask, and examine the flask under a microscope for lifting. If necessary, return the cells to the incubator for an additional 5-10 minutes, with occasional tapping, until lifting is complete. • 6) Quickly neutralize the trypsin reaction by adding 6-9 ml cell culture medium, then transfer the cells to sterile 15 ml conical tubes. Pellet the cells by centrifugation at 300×g for 7 minutes, then decant the supernatant. • 7) Resuspend the cells in fresh cell culture medium. Do cell counting with hemocytometer. • 8) Seed 100 μl of 5,000 cells into each well of the sterile 96-well cell culture plate (Corning 3903) and culture overnight at 37° C. with 5% C02. 3. Compounds Titration and Treatment of HT-29 Cells • 1) All batches of compounds (CPDs) (e.g., compound 1-281) were dissolved in DMSO (Dimethyl sulfoxide) as 20 mM stock solution. • 2) Take 3 ul 20 mM stock solution of CPDs to 27 ul DMSO and mix well, continue the titration ratio of 1:3 (20 ul CPDs+40 ul DMSO), e.g., to give solutions of CPDS at 6.6 mM, 2.2 mM, etc., till the 10 points end. • 3) Take out assay plates with HT-29 cells from incubator, remove all culture medium then wash 1 time with 1×PBS, and change fresh McCOY's 5 A medium of FBS free with a cocktail of TNF-α (10 ng/ml), the SMAC mimetic (6 uM) and zVAD-FMK (10 μM) to stimulate the HT-29 cells to increase pRIPK1 levels and necroptosis. • 4) Add 0.5 μL of the diluted compound to the corresponding 96-well assay plates. • 5) Incubate the assay plates for 20 hours at 37° C. with 5% C02. 4. Performing Cell Viability Detection of HT-29 Cells after Treated with Compounds • 1) The CellTiter-Glo® Luminescent Cell Viability Assay was employed to detect the ATP levels of viable HT-29 cells. • 2) Equilibrate the CellTiter-Glo® buffer and the lyophilized substrate to room temperature prior to use. • 3) Resuspend the CellTiter-Glo® substrate with CellTiter-Glo® buffer, mix by gently vortexing to obtain a homogeneous solution. • 4) Pipette 20 μl the enzyme/substrate mixture by multi-channel pipette into the 96-well assay plates from step 5) under the Compounds titration and treatment stage. • 5) Place the plates on an orbital shaker and mix the contents for 3 minutes to induce cell lysis. • 6) Then allow the plates to incubate at room temperature for 10 minutes to stabilize luminescent signal. • 7) Read and record luminescence signal with EnVision. • 8) The geometric mean EC50 of the compounds were calculated from points response dose with duplicate. In Tables 2 and 4, activity is provided as follows: +++=0.1 nM≤EC50<100 nM; ++=100 nM≤EC50<1000 nM; +=1000 nM≤EC50<10000 nM.
row,SMILES,EC50 [nM]
1,Cn1ncc(C#N)c1-c1ccc(F)c(OC2CN(C(=O)N3N=CCC3c3cc(F)cc(F)c3)C2)c1 (stereo not shown) [compound 114],0.1 to 100
2,"COC1CN(C(=O)c2cnn(C)c2-c2cc(OC3CN(C(=O)N4N=CC[C@H]4c4cc(F)cc(F)c4)C3)c(F)cn2)C1 [compound 74, (S)-(5-(3,5-difluorophenyl)-4,5-dihydro-1H-pyrazol-1-yl)(3-((5-fluoro-2-(4-(3-methoxyazetidine-1-carbonyl)-1-methyl-1H-pyrazol-5-yl)pyridin-4-yl)oxy)azetidin-1-yl)methanone]",100 to 1000
3,"Cn1ccnc1-c1ccc(F)c(OC2CN(C(=O)N3N=CC[C@H]3c3cc(F)cc(F)c3)C2)n1 [compound 5, (S)-(5-(3,5-difluorophenyl)-4,5-dihydro-1H-pyrazol-1-yl)(3-((3-fluoro-6-(1-methyl-1H-imidazol-2-yl)pyridin-2-yl)oxy)azetidin-1-yl)methanone]",0.1 to 100
4,"Cc1scnc1-c1ccc(F)c(OC2CN(C(=O)N3N=CC[C@H]3c3cc(F)cc(F)c3)C2)n1 [compound 13, (S)-(5-(3,5-difluorophenyl)-4,5-dihydro-1H-pyrazol-1-yl)(3-((3-fluoro-6-(5-methylthiazol-4-yl)pyridin-2-yl)oxy)azetidin-1-yl)methanone]",0.1 to 100
5,"CCn1nccc1-c1cc(OC2CN(C(=O)N3N=CC[C@H]3c3cc(F)cc(F)c3)C2)c(F)cn1 [compound 4, (S)-(5-(3,5-difluorophenyl)-4,5-dihydro-1H-pyrazol-1-yl)(3-((2-(1-ethyl-1H-pyrazol-5-yl)-5-fluoropyridin-4-yl)oxy)azetidin-1-yl)methanone]",0.1 to 100
6,"Cn1ncc(CO)c1-c1cc(OC2CN(C(=O)N3N=CC[C@H]3c3cc(F)cc(F)c3)C2)c(F)cn1 [compound 78, (S)-(5-(3,5-difluorophenyl)-4,5-dihydro-1H-pyrazol-1-yl)(3-((5-fluoro-2-(4-(hydroxymethyl)-1-methyl-1H-pyrazol-5-yl)pyridin-4-yl)oxy)azetidin-1-yl)methanone]",0.1 to 100

# Same assay, conditions: Homo sapiens; HT-29 cells, FBS free medium, TNF-α (10 ng/ml), SMAC mimetic (6 uM), zVAD-FMK (10 μM), 20 hours; geometric mean EC50; read-out: Cell activity (EC50) of Compounds 117-281
row,SMILES,EC50 [nM]
1,"COCC(=O)Nc1cnn(C)c1-c1cc(OC2CN(C(=O)N3N=CC[C@H]3c3cc(F)cc(F)c3)C2)c(F)cn1 [compound 121, (S)—N-(5-(4-((1-(5-(3,5-difluorophenyl)-4,5-dihydro-1H-pyrazole-1-carbonyl)azetidin-3-yl)oxy)-5-fluoropyridin-2-yl)-1-methyl-1H-pyrazol-4-yl)-2-methoxyacetamide]",0.1 to 100
2,"Cc1nn(-c2cc(OC3CN(C(=O)N4N=CC[C@H]4c4cc(F)cc(F)c4)C3)c(F)cn2)c(C)c1C(=O)N1CCCCC1 [compound 183, (S)-(5-(3,5-difluorophenyl)-4,5-dihydro-1H-pyrazol-1-yl)(3-((2-(3,5-dimethyl-4-(piperidine-1-carbonyl)-1H-pyrazol-1-yl)-5-fluoropyridin-4-yl)oxy)azetidin-1-yl)methanone]",0.1 to 100
3,"Cc1c(-c2cc(OC3CN(C(=O)N4N=CC[C@H]4c4cc(F)cc(F)c4)C3)c(F)cn2)nn(C)c1C(=O)NCCO [compound 265, (S)-3-(4-((1-(5-(3,5-difluorophenyl)-4,5-dihydro-1H-pyrazole-1-carbonyl)azetidin-3-yl)oxy)-5-fluoropyridin-2-yl)-N-(2-hydroxyethyl)-1,4-dimethyl-1H-pyrazole-5-carboxamide]",0.1 to 100
4,"Cc1nn(-c2cc(OC3CN(C(=O)N4N=CC[C@H]4c4cc(F)cc(F)c4)C3)c(F)cn2)c(C)c1C(=O)NCCN(C)C [compound 256, (S)-1-(4-((1-(5-(3,5-difluorophenyl)-4,5-dihydro-1H-pyrazole-1-carbonyl)azetidin-3-yl)oxy)-5-fluoropyridin-2-yl)-N-(2-(dimethylamino)ethyl)-3,5-dimethyl-1H-pyrazole-4-carboxamide]",0.1 to 100
5,"Cn1ncc(C(=O)NC2CC2)c1-c1cc(OC2CN(C(=O)N3N=CC[C@H]3c3cc(F)cc(F)c3)C2)c(F)cn1 [compound 134, (S)—N-cyclopropyl-5-(4-((1-(5-(3,5-difluorophenyl)-4,5-dihydro-1H-pyrazole-1-carbonyl)azetidin-3-yl)oxy)-5-fluoropyridin-2-yl)-1-methyl-1H-pyrazole-4-carboxamide]",0.1 to 100
6,"Cc1nn(-c2cc(OC3CN(C(=O)N4N=CC[C@H]4c4cc(F)cc(F)c4)C3)c(F)cn2)c(C)c1CC(=O)N(C)C [compound 239, (S)-2-(1-(4-((1-(5-(3,5-difluorophenyl)-4,5-dihydro-1H-pyrazole-1-carbonyl)azetidin-3-yl)oxy)-5-fluoropyridin-2-yl)-3,5-dimethyl-1H-pyrazol-4-yl)-N,N-dimethylacetamide]",0.1 to 100
7,"Cc1c(CN)nn(C)c1-c1cc(OC2CN(C(=O)N3N=CC[C@H]3c3cc(F)cc(F)c3)C2)c(F)cn1 [compound 211, (S)-(3-((2-(3-(aminomethyl)-1,4-dimethyl-11H-pyrazol-5-yl)-5-fluoropyridin-4-yl)oxy)azetidin-1-yl)(5-(3,5-difluorophenyl)-4,5-dihydro-1H-pyrazol-1-yl)methanone]",0.1 to 100
8,Cc1nn(-c2ccc(F)c(OC3CN(C(=O)N4N=CC[C@H]4c4cc(F)cc(F)c4)C3)n2)c(C)c1C(N)=O [compound 275],0.1 to 100
9,"Cc1ccc(C(N)=O)n1-c1cc(OC2CN(C(=O)N3N=CC[C@H]3c3cc(F)cc(F)c3)C2)c(F)cn1 [compound 161, (S)-1-(4-((1-(5-(3,5-difluorophenyl)-4,5-dihydro-1H-pyrazole-1-carbonyl)azetidin-3-yl)oxy)-5-fluoropyridin-2-yl)-5-methyl-1H-pyrrole-2-carboxamide]",0.1 to 100
10,Cc1nn(-c2cc(OC3CN(C(=O)N4N=CC[C@H]4c4cc(F)cc(F)c4)C3)c(F)cn2)c(C)c1NC(=O)C1CCOCC1 [compound 138],0.1 to 100
11,"Cn1nc(NC(=O)C2CC2)cc1-c1cc(OC2CN(C(=O)N3N=CC[C@H]3c3cc(F)cc(F)c3)C2)c(F)cn1 [compound 137, (S)—N-(5-(4-((1-(5-(3,5-difluorophenyl)-4,5-dihydro-1H-pyrazole-1-carbonyl)azetidin-3-yl)oxy)-5-fluoropyridin-2-yl)-1-methyl-1H-pyrazol-3-yl)cyclopropanecarboxamide]",0.1 to 100
12,"Cc1nn(-c2cc(OC3CN(C(=O)N4N=CC[C@H]4c4cc(F)cc(F)c4)C3)c(F)cn2)c(C)c1S(=O)(=O)Nc1ccccc1 [compound 243, (S)-1-(4-((1-(5-(3,5-difluorophenyl)-4,5-dihydro-1H-pyrazole-1-carbonyl)azetidin-3-yl)oxy)-5-fluoropyridin-2-yl)-3,5-dimethyl-N-phenyl-1H-pyrazole-4-sulfonamide]",0.1 to 100
13,"CONS(=O)(=O)c1c(C)nn(-c2cc(OC3CN(C(=O)N4N=CC[C@H]4c4cc(F)cc(F)c4)C3)c(F)cn2)c1C [compound 248, (S)-1-(4-((1-(5-(3,5-difluorophenyl)-4,5-dihydro-1H-pyrazole-1-carbonyl)azetidin-3-yl)oxy)-5-fluoropyridin-2-yl)-N-methoxy-3,5-dimethyl-1H-pyrazole-4-sulfonamide]",0.1 to 100
